Among the data in patent US8426437B2, “Pyrroloquinoline derivatives and their use as protein kinases inhibitors” (Pierre Fabre Medicament, priority 2005, dated 2013) are IC50 values, retold here.

As a reminder, the IC50 is the concentration needed to halve the response being measured.

T1 sequence (P07949 29-1114): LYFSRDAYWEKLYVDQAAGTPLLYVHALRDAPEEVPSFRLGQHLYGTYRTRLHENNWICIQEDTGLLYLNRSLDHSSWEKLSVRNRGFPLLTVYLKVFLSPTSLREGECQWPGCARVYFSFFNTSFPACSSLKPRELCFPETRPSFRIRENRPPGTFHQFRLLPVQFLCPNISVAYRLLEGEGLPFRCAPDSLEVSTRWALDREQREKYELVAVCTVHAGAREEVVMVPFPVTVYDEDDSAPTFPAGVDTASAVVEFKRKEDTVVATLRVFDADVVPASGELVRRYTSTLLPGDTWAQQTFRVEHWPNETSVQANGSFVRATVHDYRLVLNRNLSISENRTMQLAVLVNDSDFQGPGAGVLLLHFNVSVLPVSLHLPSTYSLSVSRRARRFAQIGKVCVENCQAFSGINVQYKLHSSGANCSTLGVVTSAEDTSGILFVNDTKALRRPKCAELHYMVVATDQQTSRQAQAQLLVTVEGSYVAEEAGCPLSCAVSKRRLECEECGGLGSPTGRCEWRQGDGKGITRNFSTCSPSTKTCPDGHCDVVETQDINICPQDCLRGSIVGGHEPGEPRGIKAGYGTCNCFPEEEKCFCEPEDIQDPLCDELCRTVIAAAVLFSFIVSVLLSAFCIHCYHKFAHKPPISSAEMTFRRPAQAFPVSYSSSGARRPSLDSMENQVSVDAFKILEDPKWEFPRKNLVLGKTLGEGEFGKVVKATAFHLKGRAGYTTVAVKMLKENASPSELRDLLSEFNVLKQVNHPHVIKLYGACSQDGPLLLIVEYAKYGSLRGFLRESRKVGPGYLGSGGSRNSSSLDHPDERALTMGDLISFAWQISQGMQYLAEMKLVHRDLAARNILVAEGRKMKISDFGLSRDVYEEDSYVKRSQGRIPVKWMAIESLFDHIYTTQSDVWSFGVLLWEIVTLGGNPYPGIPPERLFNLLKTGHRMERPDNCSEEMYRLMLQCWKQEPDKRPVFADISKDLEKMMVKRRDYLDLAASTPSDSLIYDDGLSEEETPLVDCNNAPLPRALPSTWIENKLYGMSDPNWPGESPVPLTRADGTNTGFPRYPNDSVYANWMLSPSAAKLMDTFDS

This assay concerns the target T1, RET (Homo sapiens, UniProt P07949).
T1 construct: purchased Upstate 14-570MG
Nature of the assay: Inhibition of RET kinase activity, recombinant RET method (Kinase-Glo). Type of assay: biochemical. Conditions: RET 2 μg/ml, poly-EY4 substrate, 20 μM ATP, two hours at 30° C. On the procedure:
The inhibition of the kinase activity of the compounds of the invention is assessed by measuring their IC50 on RET.
where: • Y is the value of the luminescence • X is the logarithm of the concentration of the compound • Bottom is the minimum Y value • Top is the maximum Y value • LogIC50 is the value of X when Y is 50% from Top—Bottom.
The quantity of RET required is 2 μg/ml.
The following buffer is used for dilution of RET: 20 mM MOPS/NaOH pH7.0, 1 mM EDTA, 5% glycerol, 0.01% Brij35 (Sigma B4184), 0.1% 2-mercaptoethanol, 1 mg/ml BSA (Sigma A3059-10G).
The dilution of the compounds of the invention is distributed so as to obtain a scale of final concentrations between 10 nM and 30 μM.
After incubation of the reaction mixture for two hours at 30° C., the level of ATP that remains is assayed using the Kinase-Glo Luminescent Kinase Assay (Promega #V6712) according to the conditions recommended by the supplier. The luminescence induced is read in a plate reader (Envision-Perkin Elmer).
In general terms: In Kinase-Glo more light means more ATP remaining.
On to `CCOC(=O)c1c[nH]c2c(=O)[nH]c3ccc(S(=O)(=O)Nc4ccccc4C)cc3c12` [Compound 4, 4-Oxo-8-o-tolylsulfamoyl-4,5-dihydro-3H-pyrrolo[2,3-c]quinoline-1-ethyl carboxylate], for which the IC50 was below 100 nM.
Consider `CCOC(=O)c1c[nH]c2c(=O)[nH]c3ccc(S(=O)(=O)Nc4cccc(C)c4)cc3c12` [Compound 5, 4-Oxo-8-m-tolylsulfamoyl-4,5-dihydro-3H-pyrrolo[2,3-c]quinoline-1-ethyl carboxylate], for which the half-inhibitory concentration (IC50) lay in the range of 100 to 1000 nM.
Next, `CCOC(=O)c1c[nH]c2c(=O)[nH]c3ccc(S(=O)(=O)Nc4ccccc4OC)cc3c12` [Compound 7, 8-(2-Methoxy-phenylsulfamoyl)-4-oxo-4,5-dihydro-3H-pyrrolo[2,3-c]quinoline-1-ethyl carboxylate]: 100 to 1000 nM; `CCOC(=O)c1c[nH]c2c(=O)[nH]c3ccc(S(=O)(=O)Nc4ccc(OC)cc4)cc3c12` [Compound 9, 8-(4-Methoxy-phenylsulfamoyl)-4-oxo-4,5-dihydro-3H-pyrrolo[2,3-c]quinoline-1-ethyl carboxylate]: 100 to 1000 nM.
For `CCOC(=O)c1c[nH]c2c(=O)[nH]c3ccc(S(=O)(=O)Nc4cccc(Cl)c4)cc3c12` [Compound 10, 8-(3-Chlorophenylsulfamoyl)-4-oxo-4,5-dihydro-3H-pyrrolo[2,3-c]quinoline-1-ethyl carboxylate], the half-maximal inhibitory concentration (IC50) lay within 100 to 1000 nM.
Next, `CCOC(=O)c1c[nH]c2c(=O)[nH]c3ccc(S(=O)(=O)Nc4ccc(Cl)cc4)cc3c12` [Compound 11, 8-(4-Chlorophenylsulfamoyl)-4-oxo-4,5-dihydro-3H-pyrrolo[2,3-c]quinoline-1-ethyl carboxylate]: 100 to 1000 nM; `CCOC(=O)c1c[nH]c2c(=O)[nH]c3ccc(S(=O)(=O)N(C)c4ccc(F)cc4)cc3c12` [Compound 13, 8-[(4-Fluorophenyl)-N-methyl-sulfamoyl)-4-oxo-4,5-dihydro-3H-pyrrolo[2,3-c]quinoline-1-ethyl carboxylate]: below 100 nM; `CCOC(=O)c1ccc(NS(=O)(=O)c2ccc3[nH]c(=O)c4[nH]cc(C(=O)OCC)c4c3c2)cc1` [Compound 14, 8-(4-Ethoxycarbonyl-phenylsulfamoyl)-4-oxo-4,5-dihydro-3H-pyrrolo[2,3-c]quinoline-1-ethyl carboxylate]: 1000 to 10000 nM.
On to `CCOC(=O)c1c[nH]c2c(=O)[nH]c3ccc(S(=O)(=O)Nc4cccc(O)c4)cc3c12` [Compound 15, 8-(3-Hydroxy-phenylsulfamoyl)-4-oxo-4,5-dihydro-3H-pyrrolo[2,3-c]quinoline-1-ethyl carboxylate], for which the IC50 lay in the range of 100 to 1000 nM.
For `CCOC(=O)c1c[nH]c2c(=O)[nH]c3ccc(S(=O)(=O)Nc4cccc(F)c4C)cc3c12` [Compound 16, 8-(3-Fluoro-2-methyl-phenylsulfamoyl)-4-oxo-4,5-dihydro-3H-pyrrolo[2,3-c]quinoline-1-ethyl carboxylate], the IC50 is below 100 nM.
Next, `CCOC(=O)c1c[nH]c2c(=O)[nH]c3ccc(S(=O)(=O)Nc4ccc(F)cc4C)cc3c12` [Compound 17, 8-(4-Fluoro-2-methyl-phenylsulfamoyl)-4-oxo-4,5-dihydro-3H-pyrrolo[2,3-c]quinoline-1-ethyl carboxylate]: below 100 nM; `CCOC(=O)c1c[nH]c2c(=O)[nH]c3ccc(S(=O)(=O)Nc4ccc(F)c(F)c4)cc3c12` [Compound 18, 8-(3,4-Difluorophenylsulfamoyl)-4-oxo-4,5-dihydro-3H-pyrrolo[2,3-c]quinoline-1-ethyl carboxylate]: below 100 nM.
For `CCOC(=O)c1c[nH]c2c(=O)[nH]c3ccc(S(=O)(=O)Nc4cc(F)cc(F)c4)cc3c12` [Compound 19, 8-(3,5-Difluorophenylsulfamoyl)-4-oxo-4,5-dihydro-3H-pyrrolo[2,3-c]quinoline-1-ethyl carboxylate], the IC50 fell in the range of 100 to 1000 nM.
